# Results reported in ChEMBL document CHEMBL1143634, “Calculating virtual log P in the alkane/water system (log P(N)(alk)) and its derived parameters deltalog P(N)(oct-alk) and log D(pH)(alk)” (J Med Chem, 2005).
# Assay: Tested for fraction of oral dose absorbed orally in humans
# Type: ADME
# Conditions: human
row,Structure (SMILES),Activity
1,C=CCc1ccccc1OCC(O)CNC(C)C (stereo not drawn) [ALPRENOLOL],96%
2,Cc1cc(=O)n(-c2ccccc2)n1C [ANTIPYRINE],97%
3,CC(C)NCC(O)COc1cccc2[nH]ccc12 (stereo not drawn) [PINDOLOL],92%
4,OC[C@@H](O)[C@@H](O)[C@H](O)[C@H](O)CO [MANNITOL],26%

# Same assay, conditions: human, read-out: Activity
row,Structure (SMILES),Fa
1,O=C(O)c1cc(/N=N/c2ccc(S(=O)(=O)Nc3ccccn3)cc2)ccc1O [SULFASALAZINE],13%

# Assay: Lipophilicity determined as logarithm of the partition coefficient in the alkane/water system
# Conditions: octanol/water
row,Structure (SMILES),Log PNalk
1,C=CCc1ccccc1OCC(O)CNC(C)C (stereo not drawn) [ALPRENOLOL],1.3
2,O=C(O)c1cccc([N+](=O)[O-])c1,-1.22
3,N=C(N)N/N=C/c1c(Cl)cccc1Cl [GUANABENZ],-1.6
4,CN1CCC(=C2c3ccccc3CCc3cccnc32)CC1 [AZATADINE],1.82
5,CC(C(=O)O)c1ccc(-c2ccccc2)c(F)c1 (stereo not drawn) [FLURBIPROFEN],1.49
6,CC(Cl)(Cl)Cl [TRICHLOROETHANE],2.71
7,COc1ccccc1C(=O)O,2.08
8,COc1ccc2c(c1)c(CC(=O)O)c(C)n2C(=O)c1ccc(Cl)cc1 [INDOMETHACIN],0.98
9,CNc1ccccc1,1.11
10,COc1cccc(O)c1 [1-hydroxy-3-methoxybenzene],-0.88
11,CCCC(C)C1(CC)C(=O)NC(=O)NC1=O (stereo not drawn) [PENTOBARBITAL],-1.22
12,Nc1ccc(/N=N/c2ccccc2)c(N)n1 [PHENAZOPYRIDINE],0.42
13,c1ccc(-c2ccncc2)cc1,1.58
14,CC(=O)Nc1ccccc1 [ACETANILIDE],-1.7
15,[O-][S+](c1ccccc1)c1ccccc1,0.67
16,CCC(C)=O [BUTANONE],-0.25
17,CC(=O)c1ccccc1 [ACETOPHENONE],1.14
18,CCCCCC(=O)O [HEXANOATE],0.24
